Data: ChEMBL document CHEMBL1201862, “PubChem BioAssay data set” (2004)
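Assay format: 96-well plates, 48-hour exposure. The concentration for 50% growth inhibition is given as GI50.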 Active and inactive are the calls of the source. Rule as the data show it: active = GI50 up to about 1.1 µM and inactive = higher.

Assays:
Test in all cases: growth of human tumour cells (NCI), 48 h
786-0 = system: 786-0
A498 = system: A498
A549 = system: A549
ACHN = system: ACHN
CAKI-1 = system: CAKI-1
CCRF-CEM = system: CCRF-CEM
COLO 205 = system: COLO 205
DLD-1 = system: DLD-1
DMS-273 = system: DMS-273
EKVX = system: EKVX
HCC 2998 = system: HCC 2998
HCT-15 = system: HCT-15
HL-60 = system: HL-60
HOP-18 = system: HOP-18
HOP-92 = system: HOP-92
HT-29 = system: HT-29
IGROV-1 = system: IGROV-1
K562 = system: K562
KM-20L2 = system: KM-20L2
KM12 = system: KM12
LOX IMVI = system: LOX IMVI
LXFL 529 = system: LXFL 529
M14 = system: M14
M19-MEL = system: M19-MEL
MOLT-4 = system: MOLT-4
Malme-3M = system: Malme-3M
NCI-H23 = system: NCI-H23
NCI-H460 = system: NCI-H460
NCI-H522 = system: NCI-H522
OVCAR-3 = system: OVCAR-3
OVCAR-4 = system: OVCAR-4
OVCAR-5 = system: OVCAR-5
OVCAR-8 = system: OVCAR-8
RPMI-8226 = system: RPMI-8226
RXF 393 = system: RXF 393
RXF 631 = system: RXF 631
SF-268 = system: SF-268
SF-295 = system: SF-295
SF-539 = system: SF-539
SK-MEL-28 = system: SK-MEL-28
SK-MEL-2 = system: SK-MEL-2
SK-MEL-5 = system: SK-MEL-5
SK-OV-3 = system: SK-OV-3
SN12C = system: SN12C
SNB-19 = system: SNB-19
SNB-75 = system: SNB-75
SW-620 = system: SW-620
TK-10 = system: TK-10
U-251 = system: U-251
UACC-257 = system: UACC-257
UACC-62 = system: UACC-62
UO-31 = system: UO-31
XF498 = system: XF498
DMS-114 = system: DMS-114
HCT-116 = system: HCT-116
HOP-62 = system: HOP-62
NCI-H226 = system: NCI-H226
SNB-78 = system: SNB-78
SR = system: SR

For `O=C(O)CNS(=O)(=O)c1ccc(NC(=O)c2ccc(F)cc2)cc1`, the GI50 (786-0) was > 100 µM (inactive), the GI50 (A498) was > 100 µM (inactive) and the GI50 (A549) was > 100 µM (inactive). The GI50 (ACHN) was > 100 µM (inactive), the GI50 (CAKI-1) was > 100 µM (inactive) and the GI50 (CCRF-CEM) was > 100 µM (inactive). For the same compound, the GI50 (COLO 205) was > 100 µM (inactive), the GI50 (DLD-1) was > 100 µM (inactive) and the GI50 (DMS-273) was > 100 µM (inactive). The GI50 (EKVX) was > 100 µM (inactive), the GI50 (HCC 2998) was > 100 µM (inactive) and the GI50 (HCT-15) was greater than 100 µM. For the same compound, the GI50 (HL-60) was > 100 µM (inactive), the GI50 (HOP-18) was > 100 µM (inactive) and the GI50 (HOP-92) was > 100 µM (inactive). The GI50 (HT-29) was > 100 µM (inactive), the GI50 (IGROV-1) was > 100 µM (inactive) and the GI50 (K562) was > 100 µM (inactive). The GI50 (KM-20L2) was > 100 µM (inactive), the GI50 (KM12) was > 100 µM (inactive) and the GI50 (LOX IMVI) was > 100 µM (inactive). For the same compound, the GI50 (LXFL 529) was > 100 µM (inactive), the GI50 (M14) was > 100 µM (inactive) and the GI50 (M19-MEL) was > 100 µM (inactive). For the same compound, the GI50 (MOLT-4) was > 100 µM (inactive), the GI50 (Malme-3M) was > 100 µM (inactive) and the GI50 (NCI-H23) was > 100 µM (inactive). The GI50 (NCI-H460) was > 100 µM (inactive), the GI50 (NCI-H522) was > 10 µM (inactive) and the GI50 (OVCAR-3) was > 100 µM (inactive). The GI50 (OVCAR-4) was > 100 µM (inactive), the GI50 (OVCAR-5) was > 100 µM (inactive) and the GI50 (OVCAR-8) was > 100 µM (inactive). The GI50 (RPMI-8226) was > 100 µM (inactive), the GI50 (RXF 393) was 83 µM (inactive) and the GI50 (RXF 631) was > 100 µM (inactive). For the same compound, the GI50 (SF-268) was > 100 µM (inactive), the GI50 (SF-295) was > 100 µM (inactive) and the GI50 (SF-539) was > 100 µM (inactive). For the same compound, the GI50 (SK-MEL-28) was > 100 µM (inactive), the GI50 (SK-MEL-2) was > 100 µM (inactive) and the GI50 (SK-MEL-5) was > 100 µM (inactive). The GI50 (SK-OV-3) was > 100 µM (inactive), the GI50 (SN12C) was > 100 µM (inactive) and the GI50 (SNB-19) was > 100 µM (inactive). The GI50 (SNB-75) was > 100 µM (inactive), the GI50 (SW-620) was > 100 µM (inactive) and the GI50 (TK-10) was > 100 µM (inactive). For the same compound, the GI50 (U-251) was > 100 µM (inactive), the GI50 (UACC-257) was > 100 µM (inactive) and the GI50 (UACC-62) was > 100 µM (inactive). For the same compound, the GI50 (UO-31) was > 100 µM (inactive) and the GI50 (XF498) was > 100 µM (inactive).

For `CC1OC(OCC2OC(Oc3c(-c4ccc(O)cc4)oc4cc(O)cc(O)c4c3=O)C(OC3OCC(O)(CO)C3O)C(O)C2O)C(O)C(O)C1O` (stereo not given), the GI50 (786-0) was 90.8 µM (inactive), the GI50 (A498) was > 100 µM (inactive) and the GI50 (A549) was > 100 µM (inactive). The GI50 (ACHN) was > 100 µM (inactive), the GI50 (CAKI-1) was > 100 µM (inactive) and the GI50 (CCRF-CEM) was 25.7 µM (inactive). The GI50 (COLO 205) was 38.1 µM (inactive), the GI50 (DLD-1) was 36.8 µM (inactive) and the GI50 (DMS-114) was 32 µM (inactive). For the same compound, the GI50 (DMS-273) was 49.2 µM (inactive), the GI50 (EKVX) was > 100 µM (inactive) and the GI50 (HCC 2998) was > 100 µM (inactive). For the same compound, the GI50 (HCT-116) was 31.2 µM (inactive), the GI50 (HCT-15) was 22.1 µM and the GI50 (HL-60) was 21.2 µM (inactive). For the same compound, the GI50 (HOP-18) was > 100 µM (inactive), the GI50 (HOP-62) was > 100 µM (inactive) and the GI50 (HOP-92) was > 100 µM (inactive). The GI50 (HT-29) was > 100 µM (inactive), the GI50 (IGROV-1) was > 100 µM (inactive) and the GI50 (K562) was 29.4 µM (inactive). For the same compound, the GI50 (KM-20L2) was > 100 µM (inactive), the GI50 (KM12) was > 100 µM (inactive) and the GI50 (LOX IMVI) was 51.9 µM (inactive). The GI50 (LXFL 529) was > 100 µM (inactive), the GI50 (M14) was > 100 µM (inactive) and the GI50 (M19-MEL) was 21.7 µM (inactive). For the same compound, the GI50 (MOLT-4) was > 100 µM (inactive), the GI50 (Malme-3M) was > 100 µM (inactive) and the GI50 (NCI-H226) was > 100 µM (inactive). For the same compound, the GI50 (NCI-H23) was > 100 µM (inactive), the GI50 (NCI-H460) was 66.4 µM (inactive) and the GI50 (NCI-H522) was > 100 µM (inactive). The GI50 (OVCAR-3) was > 100 µM (inactive), the GI50 (OVCAR-4) was > 100 µM (inactive) and the GI50 (OVCAR-5) was > 100 µM (inactive). The GI50 (OVCAR-8) was > 100 µM (inactive), the GI50 (RPMI-8226) was > 100 µM (inactive) and the GI50 (RXF 631) was > 100 µM (inactive). The GI50 (SF-268) was > 100 µM (inactive), the GI50 (SF-295) was > 100 µM (inactive) and the GI50 (SF-539) was > 100 µM (inactive). For the same compound, the GI50 (SK-MEL-28) was > 100 µM (inactive), the GI50 (SK-MEL-2) was > 100 µM (inactive) and the GI50 (SK-MEL-5) was > 100 µM (inactive). For the same compound, the GI50 (SK-OV-3) was > 100 µM (inactive), the GI50 (SN12C) was > 100 µM (inactive) and the GI50 (SNB-19) was > 100 µM (inactive). The GI50 (SNB-75) was > 100 µM (inactive), the GI50 (SNB-78) was > 100 µM (inactive) and the GI50 (SR) was > 100 µM (inactive). The GI50 (SW-620) was 79.1 µM (inactive), the GI50 (TK-10) was > 100 µM (inactive) and the GI50 (U-251) was 44.6 µM (inactive). The GI50 (UACC-257) was > 100 µM (inactive), the GI50 (UACC-62) was > 100 µM (inactive) and the GI50 (UO-31) was > 100 µM (inactive).
